Test: Inhibition of ribonuclease A

| Ki [µM] | Structure (SMILES) |
| --- | --- |
| 11.3 | Nc1ncnc2c1ncn2[C@@H]1O[C@H](COP(=O)(O)OP(=O)(O)OC2CC(n3ccc(=O)[nH]c3=O)OC2CO)[C@@H](O)[C@H]1O (some centres not stated) |
| 0.027 | Nc1ncnc2c1ncn2[C@@H]1O[C@H](COP(=O)(O)OP(=O)(O)O[C@H]2C[C@H](n3ccc(=O)[nH]c3=O)O[C@@H]2COP(=O)(O)O)[C@@H](OP(=O)(O)O)[C@H]1O |

— ChEMBL document CHEMBL1141314, “SAR index: quantifying the nature of structure-activity relationships” (J Med Chem, 2007)
